In the CheMixHub ionic liquid set:

Experiment: xn = mol fraction of the nth substance listed
Settings: for electrical conductivity: 101 kPa; for viscosity: 100 kPa

CCCCCCCCCCCCOS(=O)(=O)[O-].[Na+] + O
Settings | electrical conductivity [S/m] | viscosity [mPa·s]
283.1 K, x1 = 6.483e-05 | 0.01714 | –
283.1 K, x1 = 6.941e-05 | 0.01821 | –
283.1 K, x1 = 7.476e-05 | 0.01971 | –
283.1 K, x1 = 8.126e-05 | 0.02131 | –
283.1 K, x1 = 8.852e-05 | 0.02313 | –
283.1 K, x1 = 9.769e-05 | 0.02537 | –
283.1 K, x1 = 0.0001027 | 0.02665 | –
283.1 K, x1 = 0.0001088 | 0.02815 | –
283.1 K, x1 = 0.0001153 | 0.02986 | –
283.1 K, x1 = 0.0001225 | 0.03168 | –
283.1 K, x1 = 0.000131 | 0.03381 | –
283.1 K, x1 = 0.0001413 | 0.03617 | –
283.1 K, x1 = 0.0001516 | 0.03884 | –
283.1 K, x1 = 0.0001654 | 0.04066 | –
283.1 K, x1 = 0.0001807 | 0.04228 | –
283.1 K, x1 = 0.0001998 | 0.044 | –
283.1 K, x1 = 0.0002228 | 0.04584 | –
283.1 K, x1 = 0.0002339 | 0.0467 | –
283.1 K, x1 = 0.0002461 | 0.04778 | –
283.1 K, x1 = 0.0002595 | 0.04865 | –
283.1 K, x1 = 0.0002745 | 0.04994 | –
283.1 K, x1 = 0.0002921 | 0.05135 | –
288.15 K, x1 = 6.595e-05 | 0.01969 | –
288.15 K, x1 = 7.09e-05 | 0.02119 | –
288.15 K, x1 = 7.663e-05 | 0.02279 | –
288.15 K, x1 = 8.276e-05 | 0.0245 | –
288.15 K, x1 = 9e-05 | 0.02696 | –
288.15 K, x1 = 9.917e-05 | 0.02952 | –
288.15 K, x1 = 0.0001045 | 0.03102 | –
288.15 K, x1 = 0.0001107 | 0.03273 | –
288.15 K, x1 = 0.0001168 | 0.03465 | –
288.15 K, x1 = 0.0001244 | 0.03679 | –
288.15 K, x1 = 0.0001328 | 0.03924 | –
288.15 K, x1 = 0.0001424 | 0.04191 | –
288.15 K, x1 = 0.0001538 | 0.04459 | –
288.15 K, x1 = 0.0001668 | 0.0463 | –
288.15 K, x1 = 0.0001829 | 0.04792 | –
288.15 K, x1 = 0.0002013 | 0.04975 | –
288.15 K, x1 = 0.0002246 | 0.05212 | –
288.15 K, x1 = 0.0002357 | 0.05319 | –
288.15 K, x1 = 0.0002468 | 0.05427 | –
288.15 K, x1 = 0.0002602 | 0.05567 | –
288.15 K, x1 = 0.0002748 | 0.05707 | –
288.15 K, x1 = 0.0002912 | 0.05868 | –
293.15 K, x1 = 1.802e-05 | – | 0.968
293.15 K, x1 = 3.604e-05 | – | 0.97
293.15 K, x1 = 5.406e-05 | – | 0.971
293.15 K, x1 = 6.553e-05 | 0.02214 | –
293.15 K, x1 = 6.973e-05 | 0.02364 | –
293.15 K, x1 = 7.207e-05 | – | 0.974
293.15 K, x1 = 7.508e-05 | 0.02545 | –
293.15 K, x1 = 8.157e-05 | 0.02759 | –
293.15 K, x1 = 8.883e-05 | 0.03004 | –
293.15 K, x1 = 9.009e-05 | – | 0.978
293.15 K, x1 = 9.76e-05 | 0.03303 | –
293.15 K, x1 = 0.000103 | 0.03463 | –
293.15 K, x1 = 0.0001081 | – | 0.981
293.15 K, x1 = 0.0001091 | 0.03666 | –
293.15 K, x1 = 0.0001152 | 0.03858 | –
293.15 K, x1 = 0.0001228 | 0.04104 | –
293.15 K, x1 = 0.0001261 | – | 0.984
293.15 K, x1 = 0.0001312 | 0.04371 | –
293.15 K, x1 = 0.0001408 | 0.0468 | –
293.15 K, x1 = 0.0001441 | – | 0.986
293.15 K, x1 = 0.0001522 | 0.04969 | –
293.15 K, x1 = 0.0001622 | – | 0.988
293.15 K, x1 = 0.0001649 | 0.05162 | –
293.15 K, x1 = 0.0001802 | – | 0.989
293.15 K, x1 = 0.0001805 | 0.05366 | –
293.15 K, x1 = 0.0001982 | – | 0.992
293.15 K, x1 = 0.0001989 | 0.05581 | –
293.15 K, x1 = 0.0002162 | – | 0.993
293.15 K, x1 = 0.0002219 | 0.0586 | –
293.15 K, x1 = 0.0002326 | 0.05979 | –
293.15 K, x1 = 0.0002342 | – | 0.993
293.15 K, x1 = 0.0002441 | 0.06118 | –
293.15 K, x1 = 0.0002522 | – | 0.995
293.15 K, x1 = 0.0002575 | 0.06269 | –
293.15 K, x1 = 0.0002702 | – | 0.996
293.15 K, x1 = 0.000272 | 0.06419 | –
293.15 K, x1 = 0.0002889 | 0.06613 | –
298.15 K, x1 = 1.802e-05 | – | 0.853
298.15 K, x1 = 3.604e-05 | – | 0.854
298.15 K, x1 = 5.406e-05 | – | 0.855
298.15 K, x1 = 6.168e-05 | 0.02352 | –
298.15 K, x1 = 6.588e-05 | 0.02512 | –
298.15 K, x1 = 7.207e-05 | – | 0.856
298.15 K, x1 = 7.696e-05 | 0.02928 | –
298.15 K, x1 = 8.42e-05 | 0.03184 | –
298.15 K, x1 = 9.009e-05 | – | 0.857
298.15 K, x1 = 9.222e-05 | 0.03505 | –
298.15 K, x1 = 9.755e-05 | 0.03686 | –
298.15 K, x1 = 0.0001029 | 0.03889 | –
298.15 K, x1 = 0.0001081 | – | 0.857
298.15 K, x1 = 0.0001261 | – | 0.858
298.15 K, x1 = 0.0001441 | – | 0.86
298.15 K, x1 = 0.0001622 | – | 0.862
298.15 K, x1 = 0.0001802 | – | 0.863
298.15 K, x1 = 0.0001982 | – | 0.864
298.15 K, x1 = 0.0002162 | – | 0.865
298.15 K, x1 = 0.0002342 | – | 0.866
298.15 K, x1 = 0.0002522 | – | 0.866
298.15 K, x1 = 0.0002702 | – | 0.867
303.15 K, x1 = 1.802e-05 | – | 0.764
303.15 K, x1 = 3.604e-05 | – | 0.766
303.15 K, x1 = 5.406e-05 | – | 0.767
303.15 K, x1 = 7.207e-05 | – | 0.768
303.15 K, x1 = 9.009e-05 | – | 0.769
303.15 K, x1 = 0.0001081 | – | 0.77
303.15 K, x1 = 0.0001261 | – | 0.772
303.15 K, x1 = 0.0001441 | – | 0.773
303.15 K, x1 = 0.0001622 | – | 0.774
303.15 K, x1 = 0.0001802 | – | 0.775
303.15 K, x1 = 0.0001982 | – | 0.776
303.15 K, x1 = 0.0002162 | – | 0.776
303.15 K, x1 = 0.0002342 | – | 0.777
303.15 K, x1 = 0.0002522 | – | 0.778
303.15 K, x1 = 0.0002702 | – | 0.779
308.15 K, x1 = 1.802e-05 | – | 0.69
308.15 K, x1 = 3.604e-05 | – | 0.691
308.15 K, x1 = 5.406e-05 | – | 0.691
308.15 K, x1 = 7.207e-05 | – | 0.692
308.15 K, x1 = 9.009e-05 | – | 0.694
308.15 K, x1 = 0.0001081 | – | 0.695
308.15 K, x1 = 0.0001261 | – | 0.696
308.15 K, x1 = 0.0001441 | – | 0.698
308.15 K, x1 = 0.0001622 | – | 0.7
308.15 K, x1 = 0.0001802 | – | 0.701
308.15 K, x1 = 0.0001982 | – | 0.702
308.15 K, x1 = 0.0002162 | – | 0.702
308.15 K, x1 = 0.0002342 | – | 0.704
308.15 K, x1 = 0.0002522 | – | 0.704
308.15 K, x1 = 0.0002702 | – | 0.705
313.15 K, x1 = 1.802e-05 | – | 0.599
313.15 K, x1 = 3.604e-05 | – | 0.6
313.15 K, x1 = 5.406e-05 | – | 0.601
313.15 K, x1 = 7.207e-05 | – | 0.601
313.15 K, x1 = 9.009e-05 | – | 0.602
313.15 K, x1 = 0.0001081 | – | 0.603
313.15 K, x1 = 0.0001261 | – | 0.604
313.15 K, x1 = 0.0001441 | – | 0.605
313.15 K, x1 = 0.0001622 | – | 0.605
313.15 K, x1 = 0.0001802 | – | 0.606
313.15 K, x1 = 0.0001982 | – | 0.607
313.15 K, x1 = 0.0002162 | – | 0.608
313.15 K, x1 = 0.0002342 | – | 0.609
313.15 K, x1 = 0.0002522 | – | 0.609
313.15 K, x1 = 0.0002702 | – | 0.61
318.15 K, x1 = 1.802e-05 | – | 0.567
318.15 K, x1 = 3.604e-05 | – | 0.568
318.15 K, x1 = 5.406e-05 | – | 0.57
318.15 K, x1 = 7.207e-05 | – | 0.57
318.15 K, x1 = 9.009e-05 | – | 0.571
318.15 K, x1 = 0.0001081 | – | 0.571
318.15 K, x1 = 0.0001261 | – | 0.572
318.15 K, x1 = 0.0001441 | – | 0.573
318.15 K, x1 = 0.0001622 | – | 0.574
318.15 K, x1 = 0.0001802 | – | 0.575
318.15 K, x1 = 0.0001982 | – | 0.576
318.15 K, x1 = 0.0002162 | – | 0.576
318.15 K, x1 = 0.0002342 | – | 0.577
318.15 K, x1 = 0.0002522 | – | 0.577
318.15 K, x1 = 0.0002702 | – | 0.578

298.15 K, frequency 0.001 MHz
Settings | electrical conductivity [S/m]
x1 = 1.029e-05 | 0.00434
x1 = 2.57e-05 | 0.0104
x1 = 3.699e-05 | 0.0155
x1 = 5.034e-05 | 0.0213
x1 = 6.37e-05 | 0.0264
x1 = 7.295e-05 | 0.0301
x1 = 8.321e-05 | 0.0349
x1 = 9.348e-05 | 0.0392
x1 = 0.0001038 | 0.0422
x1 = 0.000113 | 0.0461
x1 = 0.0001212 | 0.051
x1 = 0.0001315 | 0.054
x1 = 0.0001418 | 0.0567
x1 = 0.00015 | 0.0607
x1 = 0.0001582 | 0.0631
x1 = 0.0001665 | 0.0649
x1 = 0.000183 | 0.0673
x1 = 0.0001944 | 0.0683
x1 = 0.0002036 | 0.0701
x1 = 0.000214 | 0.0713
x1 = 0.0002222 | 0.0737
x1 = 0.0002315 | 0.075
x1 = 0.0002408 | 0.0771
x1 = 0.0002521 | 0.0792
x1 = 0.0002625 | 0.0801
x1 = 0.0002738 | 0.0823
x1 = 0.0002862 | 0.0841
